Results as given in publication PMC12702928, “Improved exposure of curcumin-loaded nanocapsules: drug quantification in LPS-induced Drosophila melanogaster and pharmacokinetics in Wistar rats” (Frontiers in Pharmacology, 2025).
Values joined by “and” are separate entries in the source; they are usually repeats but may differ in a detail not shown here. Equal entries are not always repeated. Where two headings read alike, the source gives them in different places.

Legend:
[1] = In vitro release (dialysis bag method) and release kinetics modelling; assay type: physicochemical
Protocol: The release medium was phosphate-buffered saline, prepared according to pharmacopeial standards and consisting of 0.02% KCl (w/v), 0.02% KH2PO4 (w/v), 0.116% Na2HPO4 (w/v), and 0.8% NaCl (w/v) (adjusted with 10 mM NaOH, pH 7.4) ([Anvisa, 2019]).
The dialysis bags containing CUR-loaded NCs were immersed in the phosphate-buffered saline medium at 37 °C with horizontal shaking at 50 rpm.
At predetermined intervals, 2 mL of the medium was withdrawn for analysis with a UV spectrophotometer (UV-1800, Shimadzu, Japan) at 427 nm. The experiments were conducted in triplicate (n = 3), with results reported as the percentage of drug released over time.
Evaluated models included zero-order (Equation 1), monoexponential (Equation 2), bi-exponential (Equation 3), Weibull (Equation 4), and Higuchi (Equation 5). F=k0·t (1) F=100 ·1−e^−k1·t (2) F=100·1−Ae^−αt+Be^−βt (3) F=100·1−e^−t^β/α (4) F=kH·t^0.5 (5) where F is the percentage of drug released at time t (h), k 0 is the zero-order release constant (h^−1), k 1 is the first-order release constant (h^−1), A and B represent the fractions of drug distributed in different phases, and α and β (h^−1) are the specific kinetic rate constants. k H represents the Higuchi release constant.
The drug release mechanism was further evaluated by fitting the data to the Peppas-Sahlin (Equation 6) and Korsmeyer-Peppas (Equation 7) models: F=k1· t^0.5+k2 ·t (6) F=kKP·t^n (7) where k 1 is the constant (h^−1) denoting the relative contribution of t ^0.5 dependent drug diffusion to drug release, k 2 is the constant (h^−1) denoting the relative contribution of t-dependent polymer relaxation to drug release, k KP is the kinetic constant of the Korsmeyer-Peppas model, and n is the diffusion exponent that indicates the drug transport mechanism.
The release profiles were plotted and fitted using different in vitro release models. The results of the in vitro drug release study were evaluated based on dissolution efficiency and independent/dependent kinetic models. Model selection was performed considering the highest correlation coefficient (R ^2) and the Akaike Information Criterion (AIC) ([Vieira et al., 2016]).

[2] = Stability of CUR in spiked S1 flies (whole-body fly homogenate supernatant); assay type: in vitro ADME, D. melanogaster
Protocol: (§1) This homogenate was prepared by weighing 0.02 g of whole flies, followed by adding 600 µL of acetonitrile and homogenizing with an Ultra-Turrax (T10, GmbH, Germany) for 30 s at 28,800 rpm. The mixture was centrifuged at 14,000 rpm for 10 min at 4 °C to obtain the whole-body fly homogenate supernatant (S1). Subsequently, 90 µL of S1 was spiked with 10 µL of each calibration standard and 10 µL of the IS. Deproteinization was achieved by adding 1,000 µL of acetonitrile and 10 µL of 0.2% HCl. The mixtures were vortexed for 5 min, then centrifuged at 14,000 rpm for 10 min at 4 °C. The supernatant was separated, evaporated to dryness using a centrifugal vacuum concentrator at 45 °C for 60 min, and the residue reconstituted in 100 µL of mobile phase.
(§2) Stability tests were performed under identical conditions for both matrices: room temperature for 6 h (22 °C ± 3 °C), in the autosampler for up to 24 h (22 °C ± 3 °C), after 60 days in a freezer (−80 °C ± 2 °C), and across three freeze-thaw cycles, with each thawing period at room temperature for approximately 2 h and refreezing for 12 h at −20 °C. For each species, three replicates at concentrations of 3 and 150 ng/mL were tested.
(§3) Samples were deemed stable if the results fell within the acceptable limits of accuracy (±15% of nominal concentration) and precision (±15% CV). For the LLOQ, the CV was not to exceed 20% ([FDA, 2018]; [ICH, 2019]).

[3] = Stability of CUR in spiked rat plasma; assay type: in vitro ADME; conditions: Plasma rats
Protocol: The rat plasma extraction was processed similarly to that of the flies, with 10 µL of each calibration standard sample mixed with 90 µL of blank rat plasma and 10 µL of the IS, followed by deproteinization with acetonitrile.
as §2, §3

[4] = Fly whole-body CUR quantification after 10-day dietary exposure, healthy flies; assay type: in vivo, D. melanogaster; conditions: both sexes, Drosophila melanogaster, whole-body homogenate, oral, 110 ng/mL in food medium for 10 days
Protocol: as §1
Adult healthy flies (1–3 days old) of both sexes were used, with each group consisting of 25 males and 25 females (n = 6 replicates/50 flies each). […] The medium was replaced every 3 days. The dosing and study design were based on our previous study ([Fernandes et al., 2023]).

[5] = Fly whole-body CUR quantification, lipopolysaccharide-induced inflammation; assay type: in vivo, D. melanogaster; conditions: LPS 250 μg/mL in food medium + 37 ng/mL for 10 days
Protocol: as §1

[6] = Pharmacokinetic study in rodents (non-compartmental analysis); assay type: in vivo, Wistar rats
Protocol: As described in our previous study, the NC-CUR was prepared via the interfacial deposition method of preformed polymers, ensuring the same final concentration ([Santos et al., 2021]). […] For the oral administration groups, blood sampling began 0.25 h post-gavage (Figure 1B). […] Pharmacokinetic parameters were calculated using non-compartmental analysis with PKanalix 2023R1 software (Lixoft, France). Plasma concentration-time profiles for each experimental group were analyzed individually.

[7] = ref Nakama et al., 2020; cited from earlier work
[8] = set-up: method as in Yang et al., 2007; conditions: rats; 500 mg kg; ref Yang et al., 2007; cited from earlier work
[9] = set-up: method as in Wang et al., 2018; conditions: mice; intravenous administration of 20 mg kg; ref Wang et al., 2018; cited from earlier work
healthy flies = test system: healthy flies; set-up: method as in Fernandes et al., 2023; conditions: ref Fernandes et al., 2023; cited from earlier work
[10] = nominal 3 ng/mL, 6 h (bench-top)
[11] = nominal 3 ng/mL, 24 h 6 h (bench-top)
[12] = nominal 3 ng/mL, Freeze-thaw cycles
[13] = nominal 150 ng/mL, 6 h (bench-top)
[14] = nominal 150 ng/mL, 24 h (autosampler)
[15] = nominal 150 ng/mL, 60 d (−80 °C)
[16] = nominal 150 ng/mL, Freeze-thaw cycles
[17] = male, Wistar, rat, plasma, iv, 2 mg/kg, Intravenous 2 mg/kg
[18] = male, Wistar, rat, plasma, Intravenous 2 mg/kg
[19] = male, Wistar, rat, plasma, Oral 6 mg/kg

drug released ([1]; at 6 h): 56.09%
drug released ([1]; at 12 h): 97.69% and ~100%
Accuracy [2, 10]: 84.45%
Mean ± SD [2, 10]: 2.74 ± 0.39 ng/mL
Accuracy [2, 11]: 114.19%
Mean ± SD [2, 11]: 3.23 ± 0.24 ng/mL
Accuracy ([2]; nominal 3 ng/mL, 60 d (−80 °C)): 103.03%
Mean ± SD ([2]; nominal 3 ng/mL, 60 d (−80 °C)): 3.09 ± 0.26 ng/mL
Accuracy [2, 12]: 106.81%
Mean ± SD [2, 12]: 3.20 ± 0.27 ng/mL
Accuracy [2, 13]: 94.59%
Mean ± SD [2, 13]: 144.26 ± 4.68 ng/mL
Accuracy [2, 14]: 89.72%
Mean ± SD [2, 14]: 142.32 ± 4.62 ng/mL
Accuracy [2, 15]: 98.39%
Mean ± SD [2, 15]: 147.59 ± 16.88 ng/mL
Accuracy [2, 16]: 95.99%
Mean ± SD [2, 16]: 143.99 ± 13.47 ng/mL
Mean ± SD [3, 10]: 2.58 ± 0.04 ng/mL
Accuracy [3, 11]: 98.08%
Mean ± SD [3, 11]: 2.94 ± 0.19 ng/mL
Accuracy ([3]; nominal 3 ng/mL, 60 d (−80 °C)): 86.28%
Mean ± SD ([3]; nominal 3 ng/mL, 60 d (−80 °C)): 2.58 ± 0.05 ng/mL
Accuracy [3, 12]: 86.23%
Mean ± SD [3, 12]: 2.58 ± 0.04 ng/mL
Accuracy [3, 13]: 99.1%
Mean ± SD [3, 13]: 148.64 ± 1.35 ng/mL
Accuracy [3, 14]: 99.84%
Mean ± SD [3, 14]: 149.75 ± 0.92 ng/mL
Accuracy [3, 15]: 98.84%
Mean ± SD [3, 15]: 148.26 ± 0.17 ng/mL
Accuracy [3, 16]: 99.1%
Mean ± SD [3, 16]: 148.64 ± 1.35 ng/mL
concentration at 10 days [4]: ~0.075 µg/mL
CUR concentration in whole-body homogenates [5]: markedly reduced CUR levels
kel ([6]; Intravenous 2 mg/kg): 0.75 h−¹
CL ([6]; Intravenous 2 mg/kg, 2 mg/kg): 7.71 L/h
t1/2 ([6]; Intravenous 2 mg/kg, 2 mg/kg): 1.17 h
AUC0-∞ ([6]; Intravenous 2 mg/kg, male Wistar rats, n = 9, 2 mg/kg): 0.10041 µg·h/mL
kel ([6]; Oral 6 mg/kg): 0.54 h−¹
clearance [6, 17]: 125 mL/min
half-life [6, 17]: 1.77 ± 0.45 h
AUC(0-inf) ([6]; male, Wistar, rat, plasma, iv, 2 mg/kg, Intravenous 2 mg/kg, male Wistar rats, n = 9): 0.1 ± 0.0244 µg·h/mL
half-life ([6]; male, Wistar, rat, plasma, po, 6 mg/kg, Oral 6 mg/kg): 1.7 h
AUC(0-inf) ([6]; male, Wistar, rat, plasma, po, 6 mg/kg, Oral 6 mg/kg, male Wistar rats, n = 12): 0.0255 µg·h/mL
Cmax [6, 18]: 0.231 µg/mL
MRT [6, 18]: 0.79 h
Vd [6, 18]: 12.8 L
Cmax [6, 19]: 0.00804 µg/mL
MRT [6, 19]: 3 h
Tmax [6, 19]: 1.31 h
bioavailability ([6]; male, Wistar, rat, plasma, Oral 6 mg/kg vs intravenous 2 mg/kg, read-out: Fabs (absolute bioavailability)): 8.48%
SMILES: COc1cc(/C=C/C(=O)CC(=O)/C=C/c2ccc(O)c(OC)c2)ccc1O [CUR, Curcumin]
B ([1]; Biexponencial model): 11.93 ± 2.50
α ([1]; Biexponencial model): 0.15 ± 0.02 h⁻¹
β ([1]; Biexponencial model): 0.17 ± 0.01 h⁻¹
A ([1]; Biexponencial model (chosen model), PBS pH 7.4): 78.99 ± 2.50
kH ([1]; Higuchi model): 18.05 ± 0.07 h⁻¹
k ([1]; Monoexponencial model, PBS pH 7.4): 0.14 ± 0.00 h⁻¹
α ([1]; Weibull model): 4.73 ± 0.06 h⁻¹
β ([1]; Weibull model): 0.82 ± 0.01 h⁻¹
k 0 ([1]; Zero order model, PBS pH 7.4): 2.57 ± 0.01 h⁻¹
Log P [7]: ~3.2
oral bioavailability (administered dose absorbed) [8]: about 1%
half-life [9]: approximately 32.4 min
concentrations producing increased survival and enhanced antioxidant defenses (healthy flies): above 300 μM
